The subject of data set [1] is U2OS cells. Nature of the data set: Cell cycle analysis (propidium iodide, flow cytometry). It counts as cell-based, Human. As to conditions: chronic 5 μM ATRi. How it is done:
Cells were harvested by standard trypsinization and fixed with 70% ethanol. After fixation, cells from each sample were resuspended in PBS, permeabilized using 0.1% Triton X-100 and treated with RNase A (0.8 mg/ml). Then cells were stained with propidium iodide and analyzed by flow cytometry using FACSAria Fusion (BD) or Accuri C6 cytometer (BD) to determine the fraction of cells in different stages of the cell cycle.
Background: A flow cytometer gives signals particle by particle.

Another data set has as its target T1, ATR (Homo sapiens, UniProt Q13535).
T1 construct: endogenous in cells; host or cells: U2OS (human osteosarcoma)
Kind of data set: Western blot of phospho-CHK1(S345) in HU-treated cells. Format: cell-based. As to conditions: 5 μM ATRi; HU-treated U2OS cells. As to the method: FIG. 3 is a Western Blot (“WB”) of U2OS cells treated with ATRi for 30 minutes prior to a 3-hour HU treatment. WB analysis was performed against phospho-CHK1(S345), CHK1 and Actin.
Cells were harvested and lysed in modified radioimmunoprecipitation assay (RIPA) buffer (50 mM Tris-HCl pH 7.5, 150 mM NaCl, 1% tergitol, 0.25% sodium deoxycholate, 5 mM EDTA) supplemented with Complete EDTA-free protease inhibitor cocktail (Roche), 1 mM PMSF, 5 mM sodium fluoride, 10 mM β-glycerol-phosphate and 0.4 mM sodium orthovanadate. Whole cell lysates were cleared with 5 minute centrifugation at 13,000 rpm at 4° C. and mixed with 3×SDS sample buffer (bromophenol blue, stacking gel buffer, 50% glycerol, 3% SDS and 60 mM DTT). After being resolved on SDS-PAGE gels, proteins were then transferred onto polyvinylidene difluoride (PVDF) membranes and detected with designated antibodies.

The test system of data set [2] is U2OS cells. Kind of data set: DNA damage in cells undergoing chronic ATR inhibition alone. Format: cell-based, Human.
Data set [3] deals with U2OS cells. Nature of the data set: SILAC/MS proteomic analysis of nuclear proteins (protein abundance). As to conditions: U2OS nuclear proteome; 5 μM ATRi, 8 days vs untreated. Format: cell-based, Human. How it is done:
FIG. 5A is a schematic diagram of the SILAC/MS experiment. FIG. 5B is a quadrant diagram of the SILAC/MS experiment. Each dot represents a different identified protein. Proteins with abundance reduced two-fold or more after ATRi treatment are shown in the upper-left corner (white quadrant). FIG. 5C is a WB analysis of U2OS cells after 8 days of chronic treatment with 5 μM of ATRi or ATMi. FIG. 5D is a time course WB analysis of U2OS cells during chronic treatment with 5 μM ATRi. FIG. 5E is a WB analysis of U2OS cells at distinct cell cycle stages. Cells were treated with 1 mM hydroxyurea (HU) or 50 ng/ml nocodazole (Noc) for 24 hours. HU treated cells were released for 2.5 hours in HU-free media. FIG. 5F is a WB analysis of U2OS cells untreated or treated for 8 days with 5 μM ATRi.
For quantitative proteomic analysis, U2OS cells chronically treated with DMSO or ATR inhibitor were cultured, respectively, in “light” or “heavy” SILAC DMEM media (ThermoFisher Scientific 88425) supplemented with 10% dialyzed FBS and penicillin/streptomycin. “Light” SILAC media was supplemented with “light” (normal) arginine ^12C6, […], while “heavy” SILAC media contained “heavy” lysine ^13C6, ^15N2 and “heavy” arginine ^13C6, ^15N4. […] HILIC fractions were dried and reconstituted in 0.1% trifluoroacetic acid and analyzed using a Q-Exactive Orbitrap and Lumos mass spectrometer. […]

The next data set relates to U2OS cancer cells. Nature of the data set: Crystal violet staining survival assay. It counts as cell-based, Human. As to conditions: after 8 days of treatment, 2 or 8 days drug-free.

“Also recorded” adds a separate entry of the source.

T1 sequence (Q13535 whole entry): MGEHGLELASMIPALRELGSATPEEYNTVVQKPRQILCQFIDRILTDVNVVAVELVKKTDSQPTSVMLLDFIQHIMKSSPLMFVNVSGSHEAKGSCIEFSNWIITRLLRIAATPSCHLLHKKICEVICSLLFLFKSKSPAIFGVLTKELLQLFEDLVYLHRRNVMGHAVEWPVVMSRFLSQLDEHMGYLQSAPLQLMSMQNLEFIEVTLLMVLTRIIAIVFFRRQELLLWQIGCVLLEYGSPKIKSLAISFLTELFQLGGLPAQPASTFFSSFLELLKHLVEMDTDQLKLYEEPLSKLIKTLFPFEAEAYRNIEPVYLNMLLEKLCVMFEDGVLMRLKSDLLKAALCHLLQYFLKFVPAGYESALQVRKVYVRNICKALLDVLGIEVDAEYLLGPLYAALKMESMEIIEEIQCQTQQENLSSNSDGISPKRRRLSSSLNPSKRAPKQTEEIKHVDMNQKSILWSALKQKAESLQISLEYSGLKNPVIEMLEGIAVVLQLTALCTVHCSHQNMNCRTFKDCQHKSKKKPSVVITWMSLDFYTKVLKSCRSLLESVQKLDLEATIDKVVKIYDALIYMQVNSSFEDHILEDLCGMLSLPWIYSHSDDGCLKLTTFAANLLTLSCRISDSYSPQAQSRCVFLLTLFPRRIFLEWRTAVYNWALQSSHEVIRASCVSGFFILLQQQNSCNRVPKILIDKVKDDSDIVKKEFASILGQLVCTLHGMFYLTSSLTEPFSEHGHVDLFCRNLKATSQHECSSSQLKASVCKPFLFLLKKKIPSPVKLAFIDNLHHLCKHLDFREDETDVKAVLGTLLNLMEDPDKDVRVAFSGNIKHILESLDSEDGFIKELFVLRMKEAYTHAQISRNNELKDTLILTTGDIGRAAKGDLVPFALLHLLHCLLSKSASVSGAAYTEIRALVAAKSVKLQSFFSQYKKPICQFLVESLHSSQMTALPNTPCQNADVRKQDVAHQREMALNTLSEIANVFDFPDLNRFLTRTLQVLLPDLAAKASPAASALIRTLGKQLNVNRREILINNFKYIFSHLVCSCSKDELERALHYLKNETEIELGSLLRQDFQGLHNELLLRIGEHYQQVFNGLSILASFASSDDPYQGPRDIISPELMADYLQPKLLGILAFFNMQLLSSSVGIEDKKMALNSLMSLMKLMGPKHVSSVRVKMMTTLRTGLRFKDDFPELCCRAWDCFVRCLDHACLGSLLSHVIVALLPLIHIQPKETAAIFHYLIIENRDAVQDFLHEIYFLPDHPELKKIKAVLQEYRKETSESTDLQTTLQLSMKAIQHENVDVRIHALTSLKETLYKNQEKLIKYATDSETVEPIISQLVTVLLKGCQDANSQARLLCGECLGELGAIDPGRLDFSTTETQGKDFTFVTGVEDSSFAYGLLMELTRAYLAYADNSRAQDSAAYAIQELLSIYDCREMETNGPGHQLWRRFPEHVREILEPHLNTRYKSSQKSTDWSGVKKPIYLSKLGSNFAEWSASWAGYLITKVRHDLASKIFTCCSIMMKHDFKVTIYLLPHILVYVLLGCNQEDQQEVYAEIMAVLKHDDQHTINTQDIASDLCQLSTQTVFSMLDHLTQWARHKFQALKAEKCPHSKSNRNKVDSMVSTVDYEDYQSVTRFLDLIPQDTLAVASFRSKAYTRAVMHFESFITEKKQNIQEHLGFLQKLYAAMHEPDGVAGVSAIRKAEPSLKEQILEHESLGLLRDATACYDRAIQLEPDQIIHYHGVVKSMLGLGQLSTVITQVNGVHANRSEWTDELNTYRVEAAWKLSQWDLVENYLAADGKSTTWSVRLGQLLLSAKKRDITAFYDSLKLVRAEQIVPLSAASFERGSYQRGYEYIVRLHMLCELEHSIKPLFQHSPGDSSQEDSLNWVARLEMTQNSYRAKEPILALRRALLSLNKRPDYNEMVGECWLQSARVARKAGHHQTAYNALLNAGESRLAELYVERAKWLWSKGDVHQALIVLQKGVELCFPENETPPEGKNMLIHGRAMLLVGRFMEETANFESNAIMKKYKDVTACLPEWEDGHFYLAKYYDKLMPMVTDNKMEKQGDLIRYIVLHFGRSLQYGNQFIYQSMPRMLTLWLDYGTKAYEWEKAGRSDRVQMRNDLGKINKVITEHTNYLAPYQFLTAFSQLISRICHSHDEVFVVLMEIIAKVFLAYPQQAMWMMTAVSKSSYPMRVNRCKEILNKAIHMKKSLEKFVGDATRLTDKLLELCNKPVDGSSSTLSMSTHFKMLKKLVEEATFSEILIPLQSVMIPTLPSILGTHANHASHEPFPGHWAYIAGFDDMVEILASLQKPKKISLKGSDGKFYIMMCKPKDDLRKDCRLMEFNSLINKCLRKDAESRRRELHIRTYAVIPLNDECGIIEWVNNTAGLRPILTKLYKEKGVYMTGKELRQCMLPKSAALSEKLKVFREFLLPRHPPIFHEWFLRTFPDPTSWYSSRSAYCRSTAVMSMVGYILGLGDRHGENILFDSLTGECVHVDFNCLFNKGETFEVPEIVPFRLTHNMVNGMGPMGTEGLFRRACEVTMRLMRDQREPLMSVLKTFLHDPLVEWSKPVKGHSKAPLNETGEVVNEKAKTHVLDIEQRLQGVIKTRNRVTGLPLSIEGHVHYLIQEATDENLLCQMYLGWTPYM
T1 sequence (Q8WXE1 whole entry partner): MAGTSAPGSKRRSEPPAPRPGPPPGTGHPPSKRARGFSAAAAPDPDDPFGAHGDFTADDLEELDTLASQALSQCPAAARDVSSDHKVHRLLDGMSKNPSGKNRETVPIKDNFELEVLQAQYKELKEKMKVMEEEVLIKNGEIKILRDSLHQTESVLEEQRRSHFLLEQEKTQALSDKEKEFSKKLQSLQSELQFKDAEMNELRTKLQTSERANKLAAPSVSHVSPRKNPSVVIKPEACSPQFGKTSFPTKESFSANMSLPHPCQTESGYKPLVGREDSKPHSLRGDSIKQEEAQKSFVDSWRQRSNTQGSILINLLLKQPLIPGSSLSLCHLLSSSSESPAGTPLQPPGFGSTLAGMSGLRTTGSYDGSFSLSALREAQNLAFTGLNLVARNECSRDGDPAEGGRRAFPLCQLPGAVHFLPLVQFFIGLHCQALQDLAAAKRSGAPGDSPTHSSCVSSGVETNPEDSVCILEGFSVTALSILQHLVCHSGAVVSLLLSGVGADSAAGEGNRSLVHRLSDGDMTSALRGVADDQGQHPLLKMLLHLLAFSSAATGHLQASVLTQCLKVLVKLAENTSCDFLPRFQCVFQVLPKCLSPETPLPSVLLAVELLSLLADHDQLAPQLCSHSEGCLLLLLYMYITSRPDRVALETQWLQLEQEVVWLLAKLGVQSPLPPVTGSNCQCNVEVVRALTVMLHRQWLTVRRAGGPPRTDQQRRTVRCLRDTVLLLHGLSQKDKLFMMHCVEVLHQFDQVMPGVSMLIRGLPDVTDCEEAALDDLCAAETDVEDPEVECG
Experimental for U2OS cancer cells: First, cells were treated for 5 days with either DMSO or 5 μM ATR inhibitor. Next, 1×10^5 cells of each cell type were plated onto a 10 cm dish and further treated with DMSO, ATR inhibitor and/or PARP inhibitor for additional 3 days. Cells were either fixed or allowed to recover after additional 2 or 8 days in drug-free media.
First, hTERT RPE-1, U2OS, HCT116, HeLa, A2780, or U87 cells were treated for 5 days with either DMSO or 5 μM ATR inhibitor. Next, 1×10^5 cells of each cell type were plated onto a 10 cm dish and further treated with DMSO, ATR inhibitor, and/or PARP inhibitor for an additional 3 days. Cells were then washed with PBS and either fixed in 100% methanol for 15 minutes at 4° C. or fixed after additional 2 or 8 days of culture in drug-free media. Fixed plates were stained with 0.1% crystal violet solution overnight followed by a distilled water wash. Pictures were taken after the plates were dried. For quantitation of cell viability, total viable cells were counted using a hematocytometer after indicated treatment.

In the case of `CS(=O)(=O)c1ccc(-c2cnc(N)c(C(=O)Nc3ccccc3)n2)cc1` [ATRi, VE-821], the “Cell cycle distribution (S-phase cells)” value with U2OS cells [1] is recorded as “minor increase in the number of S-phase cells; also recorded: slight increase in S phase cells”. In addition, the “ATR inhibition monitored by CHK1 phosphorylation” value at ATR was “almost complete ATR inhibition”. In addition, in the data set with U2OS cells [2], the DNA damage result is “not detectable”. Also, the “Abundance of proteins required for HR-mediated repair, including BRCA1 and FANCJ (SILAC/MS)” value in the data set on U2OS cells [3] is “reduced”. Further, in the data set with U2OS cancer cells, the “Recovery in drug-free media (crystal violet)” value is “recovered after switching to drug-free media”.

The values are drawn from patent US20190365745A1, “USE OF CHRONIC TREATMENT WITH ATR INHIBITORS TO SENSITIZE CANCER CELLS TO PARP INHIBITORS” (Cornell University, priority 2018, published 2019).
